Assay results published in patent publication US4720543A, “1a-7-substituted derivatives of mitomycin and uses thereof” (priority 1985, dated 1988).
Several values for one entry are separate records, joined by “and”; a condition that tells them apart may be missing. Identical values can stand only once. Like-named read-outs stand apart in the source and are kept apart here.

How the values were obtained:
TA100 (Salmonella Sp.) = test: antibiotic activity, bacterial growth inhibition in culture; format: cell-based; details: Salmonella, 37° C. overnight, read-out: amount of bacterial growth inhibition (first figure)
Experimental: (§1) Bacteria were grown in a standard growth culture at pH 7.2. After the cultures were incubated at 37° C. overnight and diluted into fresh medium, controls and the test antibiotics dissolved in 0.3% hydroxy propylcellulose (HPC) were added at various concentrations and then reincubated overnight. The measure of antibiotic activity was determined by the amount of bacterial growth inhibition as shown by measurement of the optical density at 660 nm.

Klebsiella Pneumonia = test: as above; format: cell-based
Experimental: as §1

Pseudomonas Sp. = test: as above; format: cell-based
Experimental: as §1

[1] = toxic single doses in normal CD2F1 mice; details: for Deaths due to drug toxicity: up to 45 days
Experimental: Drug was administered intraperitoneally (i.p.) in a volume of 0.1 ml per 10 grams body weight.

B16 melanoma = test: murine B16 melanoma antitumor activity
Source text: Activity against the murine B16 melanoma is currently being determined.

E. coli WP2s (λ) = details: for Induction of prophage, PFU/DISH: 24 hours
Ehrlich ascites = test: murine Ehrlich ascites antitumor activity; format: in vivo
Experimental: The antitumor activity of M-TAG for the murine Ehrlich ascities tumor was also determined. Ehrlich ascites was maintained i.p. in female BALB/C mice. For antitumor studies, 1×10^7 Ehrlich ascites cells (in 0.10 ml) were implanted i.p. in male BD2F1 mice. Drug was administered i.p. (single LD10 dose) one day after tumor implantation.

P388 leukemia = test: murine P388 leukemia antitumor activity; format: in vivo
Experimental: The murine P388 leukemia system, maintained intraperitoneally in female DBA/2 mice, was used to evaluate antitumor activity.
The P388 antileukemic activity of the test compound (M-TAG) was assessed by mean survival days, percentage increased life span or %ILS, and number of survivors after 45 days. The %ILS was calculated as follows:
%ILS=(T-C)/C×100 where T is the mean survival days of the treated mice and C is the mean survival days of the untreated mice

[2] = approximate LD10 dose (M-TAG 250 mg/kg; mitomycin C 4 mg/kg), day one

CO[C@@]12[C@H](COC(N)=O)C3=C(C(=O)C(C)=C(N)C3=O)N1C[C@H]1[C@@H]2N1C(=S)N[C@@H]1O[C@H](COC(C)=O)[C@@H](OC(C)=O)[C@H](OC(C)=O)[C@H]1NC(C)=O [M-TAG, 1a(N-2-acetamido-3,4,6-tri-O-acetyl-2-deoxy-D-glucopyranosylthiocarbamoyl)-mitomycin C]
inhibition at 0.4 µg/mL (TA100 (Salmonella Sp.); 0.4 mcg/ml): 78% | inhibition at 4 µg/mL (TA100 (Salmonella Sp.); 4.0 mcg/ml): 80% | inhibition at 40 µg/mL (TA100 (Salmonella Sp.); 40 mcg/ml): 80% | inhibition at 400 µg/mL (TA100 (Salmonella Sp.); 400 mcg/ml): 95% | optical density at 660 nm (figure in parentheses) (Klebsiella Pneumonia; 0.04 mcg/ml): 0.66 | optical density at 660 nm (figure in parentheses) (Klebsiella Pneumonia; 0.4 mcg/ml): 0.62 | optical density at 660 nm (figure in parentheses) (Klebsiella Pneumonia; 4.0 mcg/ml): 0.59 | optical density at 660 nm (figure in parentheses) (Klebsiella Pneumonia; 40 mcg/ml): 0.40 | optical density at 660 nm (figure in parentheses) (Klebsiella Pneumonia; 400 mcg/ml): 0.04 | inhibition at 0.04 µg/mL (Klebsiella Pneumonia; Klebsiella pneumoniae, 0.04 mcg/ml, 37° C. overnight, read-out: amount of bacterial growth inhibition (first figure)): 22% | inhibition at 0.4 µg/mL (Klebsiella Pneumonia; Klebsiella pneumoniae, 0.4 mcg/ml, 37° C. overnight, read-out: amount of bacterial growth inhibition (first figure)): 24% | inhibition at 4 µg/mL (Klebsiella Pneumonia; Klebsiella pneumoniae, 4.0 mcg/ml, 37° C. overnight, read-out: amount of bacterial growth inhibition (first figure)): 26% | inhibition at 40 µg/mL (Klebsiella Pneumonia; Klebsiella pneumoniae, 40 mcg/ml, 37° C. overnight, read-out: amount of bacterial growth inhibition (first figure)): 40% | inhibition at 400 µg/mL (Klebsiella Pneumonia; Klebsiella pneumoniae, 400 mcg/ml, 37° C. overnight, read-out: amount of bacterial growth inhibition (first figure)): 92% | optical density at 660 nm (figure in parentheses) (Pseudomonas Sp.; 0.04 mcg/ml): 0.52 | optical density at 660 nm (figure in parentheses) (Pseudomonas Sp.; 0.4 mcg/ml): 0.35 | optical density at 660 nm (figure in parentheses) (Pseudomonas Sp.; 4.0 mcg/ml): 0.13 | optical density at 660 nm (figure in parentheses) (Pseudomonas Sp.; 40 mcg/ml): 0.11 | optical density at 660 nm (figure in parentheses) (Pseudomonas Sp.; 400 mcg/ml): 0.11 | inhibition at 0.04 µg/mL (Pseudomonas Sp.; Pseudomonas, 0.04 mcg/ml, 37° C. overnight, read-out: amount of bacterial growth inhibition (first figure)): 30% | inhibition at 0.4 µg/mL (Pseudomonas Sp.; Pseudomonas, 0.4 mcg/ml, 37° C. overnight, read-out: amount of bacterial growth inhibition (first figure)): 45% | inhibition at 4 µg/mL (Pseudomonas Sp.; Pseudomonas, 4.0 mcg/ml, 37° C. overnight, read-out: amount of bacterial growth inhibition (first figure)): 75% | inhibition at 40 µg/mL (Pseudomonas Sp.; Pseudomonas, 40 mcg/ml, 37° C. overnight, read-out: amount of bacterial growth inhibition (first figure)): 75% | inhibition at 400 µg/mL (Pseudomonas Sp.; Pseudomonas, 400 mcg/ml, 37° C. overnight, read-out: amount of bacterial growth inhibition (first figure)): 78% | Deaths due to drug toxicity ([1]; 250 mg/kg, single i.p. dose): 0/10 | Deaths due to drug toxicity ([1]; 275 mg/kg, single i.p. dose): 1/10 | Deaths due to drug toxicity ([1]; 300 mg/kg, single i.p. dose): 3/10 | difference in LD10 dose in mice relative to mitomycin C ([1]; molar basis): 30-40 fold | approximate LD10 dose (molar) ([1]; single i.p. dose): ~346 µmol/kg | LD10 dose ([1]; single i.p. dose toxic to 10% of normal mice): 275 mg/kg and 250 to 275 mg/kg and ~250 mg/kg | mice alive on day 20 (B16 melanoma; M-TAG 250 mg/kg or mitomycin C 4 mg/kg, i.p. day 1): 6 out of 10 | mice alive on day 10 (B16 melanoma; M-TAG 250 mg/kg or mitomycin C 4 mg/kg, i.p. day 1, all vehicle-control mice died): All | antitumor activity against murine B16 melanoma (in words) (B16 melanoma; mouse, in vivo): significant antitumor activity | maximum increase of phage titer over control (E. coli WP2s (λ)): 50-100% | Induction of prophage, PFU/DISH (E. coli WP2s (λ); 0.005 ug/ml): 148.5 PFU/DISH | Induction of prophage, PFU/DISH (E. coli WP2s (λ); 0.020 ug/ml): 152.5 PFU/DISH | Induction of prophage, PFU/DISH (E. coli WP2s (λ); 0.03125 ug/ml): 591.5 PFU/DISH | Induction of prophage, PFU/DISH (E. coli WP2s (λ); 0.125 ug/ml): 799.5 PFU/DISH | Induction of prophage, PFU/DISH (E. coli WP2s (λ); 0.500 ug/ml): 2535.0 PFU/DISH | Induction of prophage, PFU/DISH (E. coli WP2s (λ); 2.000 ug/ml): 5395.0 PFU/DISH | Induction of prophage, PFU/DISH (E. coli WP2s (λ); 3.125 ug/ml): 3516.5 PFU/DISH | Induction of prophage, PFU/DISH (E. coli WP2s (λ); 12.500 ug/ml): 461.5 PFU/DISH | Induction of prophage, PFU/DISH (E. coli WP2s (λ); 50.000 ug/ml): 169.0 PFU/DISH | Induction of prophage, PFU/DISH (E. coli WP2s (λ); 200.000 ug/ml): 14.5 PFU/DISH | antitumor activity against murine Ehrlich ascites (in words) (Ehrlich ascites; mouse, in vivo): significant antitumor activity | % ILS (Ehrlich ascites; single approximate LD10 dose i.p. (M-TAG 250 mg/kg; mitomycin C 4 mg/kg), one day after implantation): 66% | Mean Survival (Ehrlich ascites; single approximate LD10 dose i.p., 250 mg/kg): 22.8 days | overall survivals, M-TAG versus mitomycin C at LD10 dose (in words) (P388 leukemia; LD10 dose): no statistical difference in the overall survivals | % ILS (P388 leukemia; [2]): 85% | Mean Survival (P388 leukemia; [2]): 22 days | antitumor activity against murine P388 leukemia (in words) (P388 leukemia; mouse, in vivo): equivalent to that achieved with the parent mitomycin C
